Reference: patent publication US20100041089A1, “IMPROVED METHOD FOR DETECTING CHEMICAL […]” (priority 2006, published 2010)

System: yeast genes (expressed mRNA)
Experiment: DNA chip measurement of expressed mRNA of yeast genes after culture with a toxic chemical substance
Type: cell-based, Saccharomyces cerevisiae S288C
Details: for level of expressed mRNA in the presence of chemical substance / level in the absence of chemical substance: cultured two hours with the chemical substance; for The level of expressed mRNA in the presence of chemical substance/The level of expressed mRNA in the absence of chemical substance: cultured two hours with substance
Procedure, shortened: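 Two-hour exposure of growing S. cerevisiae S288C (YPD, 25° C) to a sublethal toxicant preceded RNA isolation. Fluorescent cDNA was hybridized to a whole-genome array; a treated-to-untreated signal ratio of two or more was taken as significant.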

Na2As [(1)]
level of expressed mRNA in the presence of chemical substance / level in the absence of chemical substance (yeast gene YNL058C): 2.0
level of expressed mRNA in the presence of chemical substance / level in the absence of chemical substance (yeast gene YNL063W): 0.9
The level of expressed mRNA in the presence of chemical substance/The level of expressed mRNA in the absence of chemical substance (yeast gene YNL074C): 0.9
The level of expressed mRNA in the presence of chemical substance/The level of expressed mRNA in the absence of chemical substance (yeast gene YNL092W): 1.3
The level of expressed mRNA in the presence of chemical substance/The level of expressed mRNA in the absence of chemical substance (yeast gene YNL115C): 0.7
The level of expressed mRNA in the presence of chemical substance/The level of expressed mRNA in the absence of chemical substance (yeast gene YNL156C): 1.1
level of expressed mRNA in the presence of chemical substance / level in the absence of chemical substance (yeast gene YNL176C): 1.1
level of expressed mRNA in the presence of chemical substance / level in the absence of chemical substance (yeast gene YNL194C): 1.6
level of expressed mRNA in the presence of chemical substance / level in the absence of chemical substance (yeast gene YNL200C): 1.0
The level of expressed mRNA in the presence of chemical substance/The level of expressed mRNA in the absence of chemical substance (yeast gene YNL234W): 1.1
level of expressed mRNA in the presence of chemical substance / level in the absence of chemical substance (yeast gene YNL253W): 1.3
level of expressed mRNA in the presence of chemical substance / level in the absence of chemical substance (yeast gene YNL276C): 1.3
The level of expressed mRNA in the presence of chemical substance/The level of expressed mRNA in the absence of chemical substance (yeast gene YNL281W): 1.0
The level of expressed mRNA in the presence of chemical substance/The level of expressed mRNA in the absence of chemical substance (yeast gene YNL305C): 0.9
level of expressed mRNA in the presence of chemical substance / level in the absence of chemical substance (yeast gene YNR051C): 0.7
The level of expressed mRNA in the presence of chemical substance/The level of expressed mRNA in the absence of chemical substance (yeast gene YNR068C): 1.2
level of expressed mRNA in the presence of chemical substance / level in the absence of chemical substance (yeast gene YOL026C): 1.2
The level of expressed mRNA in the presence of chemical substance/The level of expressed mRNA in the absence of chemical substance (yeast gene YOL032W): 1.3
The level of expressed mRNA in the presence of chemical substance/The level of expressed mRNA in the absence of chemical substance (yeast gene YOL036W): 0.8
The level of expressed mRNA in the presence of chemical substance/The level of expressed mRNA in the absence of chemical substance (yeast gene YOL047C): 1.4
The level of expressed mRNA in the presence of chemical substance/The level of expressed mRNA in the absence of chemical substance (yeast gene YOL071W): 1.3
The level of expressed mRNA in the presence of chemical substance/The level of expressed mRNA in the absence of chemical substance (yeast gene YOL082W): 1.0
The level of expressed mRNA in the presence of chemical substance/The level of expressed mRNA in the absence of chemical substance (yeast gene YOL083W): 1.1
The level of expressed mRNA in the presence of chemical substance/The level of expressed mRNA in the absence of chemical substance (yeast gene YOL117W): 1.0
The level of expressed mRNA in the presence of chemical substance/The level of expressed mRNA in the absence of chemical substance (yeast gene YOL131W): 1.0
The level of expressed mRNA in the presence of chemical substance/The level of expressed mRNA in the absence of chemical substance (yeast gene YOL150C): 4.1
The level of expressed mRNA in the presence of chemical substance/The level of expressed mRNA in the absence of chemical substance (yeast gene YOL162W): 2.0
The level of expressed mRNA in the presence of chemical substance/The level of expressed mRNA in the absence of chemical substance (yeast gene YOR019W): 2.9
level of expressed mRNA in the presence of chemical substance / level in the absence of chemical substance (yeast gene YOR022C): 1.3
level of expressed mRNA in the presence of chemical substance / level in the absence of chemical substance (yeast gene YOR087W): 0.7
level of expressed mRNA in the presence of chemical substance / level in the absence of chemical substance (yeast gene YOR138C): 0.8
The level of expressed mRNA in the presence of chemical substance/The level of expressed mRNA in the absence of chemical substance (yeast gene YOR197W): 0.8
level of expressed mRNA in the presence of chemical substance / level in the absence of chemical substance (yeast gene YOR253W): 0.9
level of expressed mRNA in the presence of chemical substance / level in the absence of chemical substance (yeast gene YOR267C): 0.8
level of expressed mRNA in the presence of chemical substance / level in the absence of chemical substance (yeast gene YOR325W): 1.0
level of expressed mRNA in the presence of chemical substance / level in the absence of chemical substance (yeast gene YPL005W): 1.0
The level of expressed mRNA in the presence of chemical substance/The level of expressed mRNA in the absence of chemical substance (yeast gene YPL087W): 1.0
level of expressed mRNA in the presence of chemical substance / level in the absence of chemical substance (yeast gene YPL150W): 0.7
level of expressed mRNA in the presence of chemical substance / level in the absence of chemical substance (yeast gene YPL152W): 1.4
level of expressed mRNA in the presence of chemical substance / level in the absence of chemical substance (yeast gene YPL168W): 1.1
level of expressed mRNA in the presence of chemical substance / level in the absence of chemical substance (yeast gene YPL180W): 0.9
level of expressed mRNA in the presence of chemical substance / level in the absence of chemical substance (yeast gene YPL188W): 1.3
The level of expressed mRNA in the presence of chemical substance/The level of expressed mRNA in the absence of chemical substance (yeast gene YPL196W): 1.3
The level of expressed mRNA in the presence of chemical substance/The level of expressed mRNA in the absence of chemical substance (yeast gene YPL206C): 1.0
level of expressed mRNA in the presence of chemical substance / level in the absence of chemical substance (yeast gene YPL221W): 0.9
The level of expressed mRNA in the presence of chemical substance/The level of expressed mRNA in the absence of chemical substance (yeast gene YPL222W): 0.9
level of expressed mRNA in the presence of chemical substance / level in the absence of chemical substance (yeast gene YPL225W): 1.3
The level of expressed mRNA in the presence of chemical substance/The level of expressed mRNA in the absence of chemical substance (yeast gene YPR023C): 1.2
level of expressed mRNA in the presence of chemical substance / level in the absence of chemical substance (yeast gene YPR049C): 1.0
level of expressed mRNA in the presence of chemical substance / level in the absence of chemical substance (yeast gene YPR146C): 0.8
level of expressed mRNA in the presence of chemical substance / level in the absence of chemical substance (yeast gene YPR148C): 1.1
The level of expressed mRNA in the presence of chemical substance/The level of expressed mRNA in the absence of chemical substance (yeast gene YPR151C): 2.3
level of expressed mRNA in the presence of chemical substance / level in the absence of chemical substance (yeast gene YPR172W): 1.1
